Laboratory results as given in patent US6358885B1, “Substituted phenylheterocyclic herbicides” (Mississippi State University, priority 1992, dated 2002).

Columns and labels:
Experiment in all cases: Test B preemergence/postemergence greenhouse plant response rating 0 to 10
barley = format: in vivo, Hordeum vulgare; conditions: for Plant response rating, Barley: 0 to 10 scale
Summary of the method: (§1)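 Planted seeds are treated preemergence with compound dissolved in a non-phytotoxic solvent, while postemergence applications go onto plants of two to eighteen cm. Plants stay in the greenhouse twelve to sixteen days and are then rated visually relative to controls.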

barnyardgrass = format: in vivo, Echinochloa crus-galli; conditions: for Plant response rating, Barnyardgrass: 0 to 10 scale
Summary of the method: as §1

bedstraw = format: in vivo, Galium aparine; conditions: for Plant response rating, Bedstraw: 0 to 10 scale
Summary of the method: as §1

blackgrass = format: in vivo, Alopecurus myosuroides; conditions: for Plant response rating, Blackgrass: 0 to 10 scale
Summary of the method: as §1

cheatgrass = format: in vivo, Bromus secalinus; conditions: for Plant response rating, Cheatgrass: 0 to 10 scale
Summary of the method: as §1

chickweed = format: in vivo, Stellaria media; conditions: for Plant response rating, Chickweed: 0 to 10 scale
Summary of the method: as §1

cocklebur = format: in vivo, Xanthium pensylvanicum; conditions: for Plant response rating, Cocklebur: 0 to 10 scale
Summary of the method: as §1

corn = format: in vivo, Zea mays; conditions: for Plant response rating, Corn: 0 to 10 scale
Summary of the method: as §1

cotton = format: in vivo, Gossypium hirsutum; conditions: for Plant response rating, Cotton: 0 to 10 scale
Summary of the method: as §1

crabgrass = format: in vivo, Digitaria spp.; conditions: for Plant response rating, Crabgrass: 0 to 10 scale
Summary of the method: as §1

giant foxtail = format: in vivo, Setaria faberii; conditions: for Plant response rating, Giant foxtail: 0 to 10 scale
Summary of the method: as §1

lambsquarters = format: in vivo, Chenopodium album; conditions: for Plant response rating, Lambsquarter: 0 to 10 scale
Summary of the method: as §1

morningglory = format: in vivo, Ipomoea hederacea; conditions: for Plant response rating, Morningglory: 0 to 10 scale
Summary of the method: as §1

rape = format: in vivo, Brassica napus; conditions: for Plant response rating, Rape: 0 to 10 scale
Summary of the method: as §1

rice = format: in vivo, Oryza sativa; conditions: for Plant response rating, Rice: 0 to 10 scale
Summary of the method: as §1

sorghum = format: in vivo, Sorghum bicolor; conditions: for Plant response rating, Sorghum: 0 to 10 scale
Summary of the method: as §1

soybean = format: in vivo, Glycine max; conditions: for Plant response rating, Soybean: 0 to 10 scale
Summary of the method: as §1

sugar beet = format: in vivo, Beta vulgaris; conditions: for Plant response rating, Sugar beet: 0 to 10 scale
Summary of the method: as §1

velvetleaf = format: in vivo, Abutilon theophrasti; conditions: for Plant response rating, Velvetleaf: 0 to 10 scale
Summary of the method: as §1

wheat = format: in vivo, Triticum aestivum; conditions: for Plant response rating, Wheat: 0 to 10 scale
Summary of the method: as §1

wild buckwheat = format: in vivo, Polygonum convolvulus; conditions: for Plant response rating, Wild buckwheat: 0 to 10 scale
Summary of the method: as §1

wild oat = format: in vivo, Avena fatua; conditions: for Plant response rating, Wild oat: 0 to 10 scale
Summary of the method: as §1

purple nutsedge = format: in vivo, Cyperus rotundus; conditions: for Plant response rating, Nutsedge: 0 to 10 scale
Summary of the method: as §1

COCOc1cc(-c2nn3c(c2Br)CCCC3)c(F)cc1Cl [Compound 65]
5: Plant response rating, Bedstraw (bedstraw; PREEMERGENCE, Rate 50 g/ha) | Plant response rating (0 to 10 scale), Bedstraw (bedstraw; PREEMERGENCE, Rate 200 g/ha) | Plant response rating, Chickweed (chickweed; POSTEMERGENCE, Rate 50 g/ha) | Plant response rating, Corn (corn; Rate 200 g/ha, POSTEMERGENCE) | Plant response rating, Giant foxtail (giant foxtail; POSTEMERGENCE, Rate 50 g/ha) | Plant response rating, Rice (rice; POSTEMERGENCE, Rate 50 g/ha) | Plant response rating (0 to 10 scale), Wheat (wheat; PREEMERGENCE, Rate 200 g/ha) | Plant response rating, Wheat (wheat; Rate 200 g/ha, POSTEMERGENCE)
0: Plant response rating, Barley (barley; PREEMERGENCE, Rate 50 g/ha) | Plant response rating, Cocklebur (cocklebur; PREEMERGENCE, Rate 50 g/ha) | Plant response rating, Corn (corn; PREEMERGENCE, Rate 50 g/ha) | Plant response rating, Cotton (cotton; PREEMERGENCE, Rate 50 g/ha) | Plant response rating, Morningglory (morningglory; PREEMERGENCE, Rate 50 g/ha) | Plant response rating, Rape (rape; PREEMERGENCE, Rate 50 g/ha) | Plant response rating, Sorghum (sorghum; PREEMERGENCE, Rate 50 g/ha) | Plant response rating (0 to 10 scale), Sorghum (sorghum; PREEMERGENCE, Rate 200 g/ha) | Plant response rating, Soybean (soybean; PREEMERGENCE, Rate 50 g/ha) | Plant response rating, Wheat (wheat; PREEMERGENCE, Rate 50 g/ha) | Plant response rating, Nutsedge (purple nutsedge; PREEMERGENCE, Rate 50 g/ha) | Plant response rating (0 to 10 scale), Nutsedge (purple nutsedge; PREEMERGENCE, Rate 200 g/ha)
6: Plant response rating, Barley (barley; Rate 200 g/ha, POSTEMERGENCE) | Plant response rating, Cheatgrass (cheatgrass; Rate 200 g/ha, POSTEMERGENCE) | Plant response rating, Giant foxtail (giant foxtail; PREEMERGENCE, Rate 50 g/ha) | Plant response rating, Rice (rice; Rate 200 g/ha, POSTEMERGENCE) | Plant response rating, Sorghum (sorghum; POSTEMERGENCE, Rate 50 g/ha) | Plant response rating, Wheat (wheat; POSTEMERGENCE, Rate 50 g/ha)
4: Plant response rating, Barnyardgrass (barnyardgrass; PREEMERGENCE, Rate 50 g/ha) | Plant response rating (0 to 10 scale), Cheatgrass (cheatgrass; PREEMERGENCE, Rate 200 g/ha) | Plant response rating (0 to 10 scale), Cocklebur (cocklebur; PREEMERGENCE, Rate 200 g/ha) | Plant response rating, Corn (corn; POSTEMERGENCE, Rate 50 g/ha) | Plant response rating (0 to 10 scale), Corn (corn; PREEMERGENCE, Rate 200 g/ha) | Plant response rating (0 to 10 scale), Cotton (cotton; PREEMERGENCE, Rate 200 g/ha) | Plant response rating, Crabgrass (crabgrass; POSTEMERGENCE, Rate 50 g/ha) | Plant response rating, Nutsedge (purple nutsedge; Rate 200 g/ha, POSTEMERGENCE)
10: Plant response rating, Bedstraw (bedstraw; POSTEMERGENCE, Rate 50 g/ha) | Plant response rating, Bedstraw (bedstraw; Rate 200 g/ha, POSTEMERGENCE) | Plant response rating, Cocklebur (cocklebur; POSTEMERGENCE, Rate 50 g/ha) | Plant response rating, Cocklebur (cocklebur; Rate 200 g/ha, POSTEMERGENCE) | Plant response rating, Cotton (cotton; POSTEMERGENCE, Rate 50 g/ha) | Plant response rating, Cotton (cotton; Rate 200 g/ha, POSTEMERGENCE) | Plant response rating (0 to 10 scale), Giant foxtail (giant foxtail; PREEMERGENCE, Rate 200 g/ha) | Plant response rating, Lambsquarter (lambsquarters; POSTEMERGENCE, Rate 50 g/ha) | Plant response rating, Lambsquarter (lambsquarters; PREEMERGENCE, Rate 50 g/ha) | Plant response rating (0 to 10 scale), Lambsquarter (lambsquarters; PREEMERGENCE, Rate 200 g/ha) | Plant response rating, Lambsquarter (lambsquarters; Rate 200 g/ha, POSTEMERGENCE) | Plant response rating, Morningglory (morningglory; POSTEMERGENCE, Rate 50 g/ha) | Plant response rating, Morningglory (morningglory; Rate 200 g/ha, POSTEMERGENCE) | Plant response rating (0 to 10 scale), Rape (rape; PREEMERGENCE, Rate 200 g/ha) | Plant response rating, Sugar beet (sugar beet; POSTEMERGENCE, Rate 50 g/ha) | Plant response rating (0 to 10 scale), Sugar beet (sugar beet; PREEMERGENCE, Rate 200 g/ha) | Plant response rating, Sugar beet (sugar beet; Rate 200 g/ha, POSTEMERGENCE) | Plant response rating, Velvetleaf (velvetleaf; POSTEMERGENCE, Rate 50 g/ha) | Plant response rating, Velvetleaf (velvetleaf; Rate 200 g/ha, POSTEMERGENCE) | Plant response rating, Wild buckwheat (wild buckwheat; POSTEMERGENCE, Rate 50 g/ha) | Plant response rating, Wild buckwheat (wild buckwheat; PREEMERGENCE, Rate 50 g/ha) | Plant response rating (0 to 10 scale), Wild buckwheat (wild buckwheat; PREEMERGENCE, Rate 200 g/ha) | Plant response rating, Wild buckwheat (wild buckwheat; Rate 200 g/ha, POSTEMERGENCE)
2: Plant response rating (0 to 10 scale), Barley (barley; PREEMERGENCE, Rate 200 g/ha) | Plant response rating, Cheatgrass (cheatgrass; PREEMERGENCE, Rate 50 g/ha) | Plant response rating, Crabgrass (crabgrass; PREEMERGENCE, Rate 50 g/ha) | Plant response rating (0 to 10 scale), Crabgrass (crabgrass; PREEMERGENCE, Rate 200 g/ha) | Plant response rating (0 to 10 scale), Morningglory (morningglory; PREEMERGENCE, Rate 200 g/ha) | Plant response rating (0 to 10 scale), Soybean (soybean; PREEMERGENCE, Rate 200 g/ha) | Plant response rating, Wild oat (wild oat; PREEMERGENCE, Rate 50 g/ha)
7: Plant response rating, Barnyardgrass (barnyardgrass; POSTEMERGENCE, Rate 50 g/ha) | Plant response rating, Blackgrass (blackgrass; POSTEMERGENCE, Rate 50 g/ha) | Plant response rating, Blackgrass (blackgrass; PREEMERGENCE, Rate 50 g/ha) | Plant response rating (0 to 10 scale), Blackgrass (blackgrass; PREEMERGENCE, Rate 200 g/ha) | Plant response rating, Blackgrass (blackgrass; Rate 200 g/ha, POSTEMERGENCE) | Plant response rating, Crabgrass (crabgrass; Rate 200 g/ha, POSTEMERGENCE) | Plant response rating, Sorghum (sorghum; Rate 200 g/ha, POSTEMERGENCE) | Plant response rating, Wild oat (wild oat; POSTEMERGENCE, Rate 50 g/ha) | Plant response rating, Wild oat (wild oat; Rate 200 g/ha, POSTEMERGENCE)
1: Plant response rating, Chickweed (chickweed; PREEMERGENCE, Rate 50 g/ha) | Plant response rating, Rice (rice; PREEMERGENCE, Rate 50 g/ha)
3: Plant response rating, Barley (barley; POSTEMERGENCE, Rate 50 g/ha) | Plant response rating, Cheatgrass (cheatgrass; POSTEMERGENCE, Rate 50 g/ha) | Plant response rating (0 to 10 scale), Chickweed (chickweed; PREEMERGENCE, Rate 200 g/ha) | Plant response rating (0 to 10 scale), Rice (rice; PREEMERGENCE, Rate 200 g/ha) | Plant response rating, Nutsedge (purple nutsedge; POSTEMERGENCE, Rate 50 g/ha)
8: Plant response rating, Giant foxtail (giant foxtail; Rate 200 g/ha, POSTEMERGENCE) | Plant response rating, Rape (rape; POSTEMERGENCE, Rate 50 g/ha) | Plant response rating, Soybean (soybean; Rate 200 g/ha, POSTEMERGENCE) | Plant response rating (0 to 10 scale), Wild oat (wild oat; PREEMERGENCE, Rate 200 g/ha)
9: Plant response rating (0 to 10 scale), Barnyardgrass (barnyardgrass; PREEMERGENCE, Rate 200 g/ha) | Plant response rating, Barnyardgrass (barnyardgrass; Rate 200 g/ha, POSTEMERGENCE) | Plant response rating, Chickweed (chickweed; Rate 200 g/ha, POSTEMERGENCE) | Plant response rating, Rape (rape; Rate 200 g/ha, POSTEMERGENCE) | Plant response rating, Sugar beet (sugar beet; PREEMERGENCE, Rate 50 g/ha) | Plant response rating, Velvetleaf (velvetleaf; PREEMERGENCE, Rate 50 g/ha) | Plant response rating (0 to 10 scale), Velvetleaf (velvetleaf; PREEMERGENCE, Rate 200 g/ha)
